Experimental data as given in US8580778B2, “Substituted dihydropyrazolones and their use” (Bayer Intellectual Property GmbH, priority 2008, dated 2013).
Structures can show the parent of a compound that is named as a salt.

These molecules were tested against HIF prolyl hydroxylase (assay: Inhibition of the activity of HIF prolyl hydroxylase (VBC complex binding test)). Details: cell lysate containing prolyl hydroxylase.
Format: biochemical
Description: 1.a) Inhibition of the Activity of HIF Prolyl Dydroxylase:
Hydroxylated HIF bonds specifically to the von Hippel-Lindau protein-elongin B-elongin C complex (VBC complex). This interaction occurs only if HIF is hydroxylated on a conserved prolyl radical. It is the basis for the biochemical determination of HIF prolyl hydroxylase activity. The test is carried out as described [Oehme F., Jonghaus W., Narouz-Ott L., Huetter J., Flamme I., Anal. Biochem. 330 (1), 74-80 (2004)]:
A clear 96-well microtiter plate coated with NeutrAvidin HBC (Pierce) is incubated with blocker casein for 30 minutes. The plate is then washed three times with 200 μl each time of wash buffer (50 mM Tris, pH 7.5, 100 mM NaCl, 10% (v/v) blocker casein, 0.05% (v/v) Tween 20) per well. The peptide biotin-DLDLEMLAPYIPMDDDFQL (Eurogentec, 4102 Seraing, Belgium) is added in a concentration of 400 nM in 100 μl wash buffer. This peptide serves as a substrate for the prolyl hydroxylation and is bonded to the microtiter plate. After incubation for 60 minutes, the plate is washed three times with wash buffer, incubated with 1 mM biotin in blocker casein for 30 minutes and then washed again three times with wash buffer.
To carry out the prolyl hydroxylase reaction, the peptide substrate bonded to the plate is incubated with a cell lysate containing prolyl hydroxylase for 1 to 60 minutes. The reaction takes place in 100 μl reaction buffer (20 mM Tris, pH 7.5, 5 mM KCl, 1.5 mM MgCl2, 1 μM-1 mM 2-oxoglutarate, 10 μM FeSO4, 2 mM ascorbate) at room temperature. The reaction mixture moreover contains various concentrations of the prolyl hydroxylase inhibitor to be tested. The test substance is preferably, but not exclusively, employed at concentrations of between 1 nM and 100 μM. The reaction is stopped by washing the plate three times with wash buffer.
For quantitative determination of the prolyl hydroxylation, a fusion protein which contains both thioredoxin from E. coli and the VBC complex in 80 μl bonding buffer (50 mM Tris, pH 7.5, 120 mM NaCl) is added. After 15 minutes, 10 μl of a solution of polyclonal anti-thioredoxin antibodies from rabbit in bonding buffer are added. After a further 30 minutes, 10 μl of a solution of anti-rabbit immunoglobulin coupled to horseradish peroxidase in bonding buffer are added. After incubation at room temperature for 30 minutes, the plate is washed three times with wash buffer in order to remove non-bonded VBC complex and antibodies. To determine the amount of bonded VBC complex, the plate is incubated with TMB for 15 minutes. The colour reaction is ended by addition of 100 μl 1 M sulphuric acid. The amount of bonded VBC complex is determined by measurement of the optical density at 450 nm. It is proportional to the amount of hydroxylated proline in the peptide substrate.
Alternatively, a VBC complex coupled to europium (Perkin Elmer) can be used for detection of the prolyl hydroxylation. In this case, the amount of bonded VBC complex is determined by the fluorescence with respect to time. The use of VBC complex labelled with [^35S]-methionine is moreover possible. For this, the radioactively labelled VBC complex can be prepared by in vitro transcription-translation in reticulocyte lysate.

| SMILES | IC50 [nM] |
| --- | --- |
| O=c1c(-n2ccnn2)c[nH]n1-c1cc(N2CCN(C3CCC3)CC2)ncn1 [Example 2, 2-[6-(4-Cyclobutylpiperazin-1-yl)pyrimidin-4-yl]-4-(1H-1,2,3-triazol-1-yl)-1,2-dihydro-3H-pyrazol-3-one] | 880 |
| O=C(O)C1CN(c2cc(-n3[nH]cc(-n4ccnc4)c3=O)ncn2)C1 [Example 5, 1-{6-[4-(1H-Imidazol-1-yl)-5-oxo-2,5-dihydro-1H-pyrazol-1-yl]pyrimidin-4-yl}azetidine-3-carboxylic acid] | 540 |
| CN(C)C1CN(c2cc(-n3[nH]cc(-n4ccnn4)c3=O)ncn2)C1 [Example 9, 2-{6-[3-(Dimethylamino)azetidin-1-yl]pyrimidin-4-yl}-4-(1H-1,2,3-triazol-1-yl)-1,2-dihydro-3H-pyrazol-3-one dihydrochloride] | 760 |
| N#Cc1cn(-c2c[nH]n(-c3cc(N4CCC(F)(F)C4)ncn3)c2=O)nn1 [Example 17, 1-{2-[6-(3,3-Difluoropyrrolidin-1-yl)pyrimidin-4-yl]-3-oxo-2,3-dihydro-1H-pyrazol-4-yl}-1H-1,2,3-triazole-4-carbonitrile] | 130 |
| N#Cc1cn(-c2c[nH]n(-c3cc(N4CC(F)(F)C4)ncn3)c2=O)nn1 [Example 21, 1-{2-[6-(3,3-Difluoroazetidin-1-yl)pyrimidin-4-yl]-3-oxo-2,3-dihydro-1H-pyrazol-4-yl}-1H-1,2,3-triazole-4-carbonitrile] | 70 |
| N#Cc1cn(-c2c[nH]n(-c3cc(N4CCCOCC4)ncn3)c2=O)cn1 [Example 25, 1-{2-[6-(1,4-Oxazepan-4-yl)pyrimidin-4-yl]-3-oxo-2,3-dihydro-1H-pyrazol-4-yl}-1H-imidazole-4-carbonitrile] | 180 |
| N#Cc1cn(-c2c[nH]n(-c3cc(N4CCCOCC4)ncn3)c2=O)nn1 [Example 26, 1-{2-[6-(1,4-Oxazepan-4-yl)pyrimidin-4-yl]-3-oxo-2,3-dihydro-1H-pyrazol-4-yl}-1H-1,2,3-triazole-4-carbonitrile] | 380 |
| N#Cc1cn(-c2c[nH]n(-c3cc(N4CCCCO4)ncn3)c2=O)nn1 [Example 29, 1-{2-[6-(1,2-Oxazinan-2-yl)pyrimidin-4-yl]-3-oxo-2,3-dihydro-1H-pyrazol-4-yl}-1H-1,2,3-triazole-4-carbonitrile] | 170 |
